Source: patent publication US11970474B2, “Substituted benzodiazoles and use thereof in therapy” (THOMAS HELLEDAYS STIFTELSE FÖR MEDICINSK FORSKNING, priority 2018, dated 2024)

How the values were obtained:
MLE12 cells = test: Cell viability assay in MLE12 cells (resazurin); format: cell-based, mouse; details: Mus musculus, MLE12, 24 h, TNF-α 20 ng/ml, resazurin added after 24 hours culture
How it was run: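 MLE12 cells (7500 cells/well) were seeded onto 11-point duplicate compound dose-responses, with TNF-α (final 20 ng/ml) added after 1 hour at 37° C. After 24 hours, resazurin was added for 6 hours and resorufin fluorescence read (ex544 nm/em595 nm). EC50 values were calculated by curve fitting.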

MEF Ogg1 (−/−) = test: Cell viability assay (resazurin); format: cell-based; details: 120 h, Normal, mouse embryonic fibroblast, five day incubation
Procedure: A dilution series of compound or vehicle are transferred to 96-well plates. Cells are seeded into the plate (500-10,000 cells/well) in suitable media and incubated for five days in 5% CO2 at 37° C.
The compounds to be tested are nano-dispensed in duplicate in 11 concentrations, directly in 384-well cell plates, with a final DMSO concentration<1%.

OGG1 = OGG1 (Homo sapiens (Human), UniProt O15527); test: In vitro OGG1 activity assay; format: biochemical; details: 800 pM OGG1 enzyme, 2 nM human APEX1, 10 nM 8-oxoA:C substrate
Sequence of OGG1 (O15527 whole entry): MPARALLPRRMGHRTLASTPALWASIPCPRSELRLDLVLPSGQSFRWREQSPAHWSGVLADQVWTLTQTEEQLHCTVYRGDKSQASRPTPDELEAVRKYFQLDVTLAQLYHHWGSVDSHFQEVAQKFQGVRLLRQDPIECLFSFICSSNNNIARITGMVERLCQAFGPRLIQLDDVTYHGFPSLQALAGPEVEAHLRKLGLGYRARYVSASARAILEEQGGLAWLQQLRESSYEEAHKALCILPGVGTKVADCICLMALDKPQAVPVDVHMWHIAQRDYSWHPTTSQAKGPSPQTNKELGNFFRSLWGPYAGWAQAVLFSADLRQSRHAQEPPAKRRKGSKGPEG
How it was run: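 Fluorescence-release assay on a duplex oligonucleotide carrying an OGG1 substrate base beside a fluorophore, quenched from the complementary strand. Excess APEX1 cleaves the abasic site left by base excision, melting the duplex and unquenching the fluorophore. Compounds in DMSO were dispensed before enzyme and substrate, and fluorescein signal was read.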

HeLa = test: Cell viability assay (resazurin); format: cell-based; details: Homo sapiens, 120 h, Cancer, Cervical adenocarcinoma, five day incubation
Procedure: (§1) A dilution series of compound or vehicle are transferred to 96-well plates. Cells are seeded into the plate (500-10,000 cells/well) in suitable media and incubated for five days in 5% CO2 at 37° C. Thereafter, resazurin (diluted in suitable medium or PBS) are added to a final concentration 10 μg/ml resazurin at 37° C. for 2-4 hours before measuring the fluorescence (Ex544/Em590), essentially as described (Riss, Terry L. et al., “Cell Viability Assays.” In Assay Guidance Manual, ed. G. Sitta Sittampalam, et al. Bethesda (Md.): Eli Lilly & Company and the National Center for Advancing Translational Sciences (2004) http://www.ncbi.nlm.nih.gov/books/NBK144065/).
(§2) The compounds to be tested are nano-dispensed in duplicate in 11 concentrations, directly in 384-well cell plates, with a final DMSO concentration<1%. Cells are seeded in cell plates, pre-dispensed with compounds (200-2500 cells/well in 50 μl). After three or five days culture in 5% CO2, 37° C., resazurin diluted in PBS is added, 10 μl/well, to a final concentration of 10 μg/ml and cells are incubated 2-4 hours before measuring fluorescence (Ex544/Em590), as described (ibid.). Results obtained for selected example compounds described herein on cancer- and non-transformed cell lines are provided in the table below (Table 3) and summarized in FIG. 1. Where indicated, combination indexes was measured with CompuSyn software (www.compusyn.com) by the method of Chou-Talalay (Chou, Ting-Chao., Cancer Research, 70(2), 440-46 (2010)).

SW480 = test: Cell viability assay (resazurin); format: cell-based; details: Homo sapiens, 120 h, Cancer, Colorectal Adenocarcinoma, five day incubation
Procedure: as §1, §2

HL-60 = test: Cell viability assay (resazurin); format: cell-based; details: Homo sapiens, 120 h, Cancer, Acute Promyelocytic Leukemia, five day incubation
Procedure: as §1, §2

BJ Tert = test: Cell viability assay (resazurin); format: cell-based; details: 120 h, Normal, immortalized fibroblast, five day incubation
Procedure: as §1, §2

HCT116 = test: Cell viability assay (resazurin); format: cell-based; details: Homo sapiens, HCT-116, 120 h, Cancer, Colorectal Carcinoma, five day incubation
Procedure: as §1, §2

A498 = test: Cell viability assay (resazurin); format: cell-based; details: Homo sapiens, 120 h, Cancer, Renal carcinoma, five day incubation
Procedure: as §1, §2

A3 = test: Cell viability assay (resazurin); format: cell-based; details: 120 h, Cancer, Acute lymphoblastic leukemia, five day incubation
Procedure: as §1, §2

DU145 = test: Cell viability assay (resazurin); format: cell-based; details: Homo sapiens, DU-145, 120 h, Cancer, Prostate carcinoma, five day incubation
Procedure: as §1, §2

MV4-11 = test: Cell viability assay (resazurin); format: cell-based; details: Homo sapiens, 120 h, Cancer, acute monocytic leukemia, five day incubation
Procedure: as §1, §2

CCD841 = test: Cell viability assay (resazurin); format: cell-based; details: CCD-841, 120 h, Normal, fetal epithelial colon, five day incubation
Procedure: as §1, §2

SaOS2 = test: Cell viability assay (resazurin); format: cell-based; details: Homo sapiens, SAOS-2, 120 h, Cancer, Osteosarcoma, five day incubation
Procedure: as §1, §2

Rec1 = test: Cell viability assay (resazurin); format: cell-based; details: Homo sapiens, 120 h, Cancer, Mantle Cell Lymphoma, five day incubation
Procedure: as §1, §2

LCL#2 = test: Cell viability assay (resazurin); format: cell-based; details: 120 h, Normal, Epstein-Barr-virus-transformed lymphoblastoid cell lines, five day incubation
Procedure: as §1, §2

PL-21 = test: Cell viability assay (resazurin); format: cell-based; details: 120 h, Cancer, acute myeloid leukemia, five day incubation
Procedure: as §1, §2

Row | IC50 (OGG1) | EC50 (HeLa) | EC50 (SW480) | EC50 (HL-60) | EC50 (HCT116) | EC50 (DU145) | EC50 (MV4-11) | SMILES | IC50 (MLE12 cells) | EC50 (MEF Ogg1 (−/−)) | EC50 (BJ Tert) | EC50 (A498) | EC50 (A3) | EC50 (CCD841) | EC50 (SaOS2) | EC50 (Rec1) | EC50 (LCL#2) | EC50 (PL-21)
1 | 0.766 µM | 16 µM | 20 µM | 14 µM | 15 µM | 11 µM | 6.5 µM | O=C(Nc1ccc(Cl)c(Cl)c1)N1CCC(n2c(=O)[nH]c3c(-c4ccc(CO)nc4)cccc32)CC1 [Example 28, N-(3,4-dichlorophenyl)-4-{4-[6-(hydroxymethyl)pyridin-3-yl]-2-oxo-2,3-dihydro-1H-1,3-benzodiazol-1-yl}piperidine-1-carboxamide] | 7.18 µM | 46 µM | 24 µM | 21 µM | 7.9 µM | 40 µM | 16 µM | 13 µM | 41 µM | 10 µM
2 | 0.149 µM | 35 µM | 30 µM | 24 µM | 29 µM | 3.1 µM | 9.6 µM | Cc1cc(NC(=O)N2CCC(n3c(=O)[nH]c4c(Br)cccc43)CC2)ccc1I [Example 50, 4-(4-Bromo-2-oxo-2,3-dihydro-1H-1,3-benzodiazol-1-yl)-N-(4-iodo-3-methylphenyl)piperidine-1-carboxamide] | 7.23 µM | 34 µM | 31 µM | 35 µM | 9.8 µM | 54 µM | 20 µM | 15 µM | 32 µM | 18 µM

Row | SMILES | IC50 (OGG1) | EC50 (HeLa) | EC50 (SW480) | EC50 (HL-60) | EC50 (HCT116) | EC50 (DU145) | EC50 (MV4-11) | IC50 (MLE12 cells) | EC50 (MEF Ogg1 (−/−)) | EC50 (BJ Tert) | EC50 (A498) | EC50 (A3) | EC50 (CCD841) | EC50 (SaOS2) | EC50 (Rec1) | EC50 (LCL#2) | EC50 (PL-21)
3 | O=C(Nc1ccc(I)cc1)N1CCC(n2c(=O)[nH]c3c(Br)cccc32)CC1 [Example 13, 4-(4-Bromo-2-oxo-2,3-dihydro-1H-1,3-benzodiazol-1-yl)-N-(4-iodophenyl)piperidine-1-carboxamide] | 0.359 µM | 22 µM | 33 µM | 22 µM | 18 µM | 13 µM | 9.4 µM | 7.67 µM | 48 µM | 34 µM | 29 µM | 11 µM | 43 µM | 21 µM | 14 µM | 25 µM | 15 µM
